Type in all cases: cell-based
In test [1] the test system is [3H]-deoxy-D-glucose uptake. The test can be described thus: Glucose uptake assay with compound 155 (inhibition of [3H]-deoxy-D-glucose uptake, FIG. 2A). Conditions: read-out: Glucose Uptake pIC50 (converted).
A further test deals with A549 cells. The test can be described thus: Lactate production assay (lactate secretion, 5 or 17 mM glucose). Conditions: Homo sapiens, 4 hours incubation. The procedure:
A549 cells were grown in DMEM/F12K+L-Glutamine supplemented with 10% foetal bovine serum. Cells were re-suspended in assay media (DMEM without phenol red, pyruvate and glucose, 10% foetal bovine serum, 2 mM L-Glutamine and 5 or 17 mM glucose) and seeded at 40×10^3 cells per well into 96-well plates and incubated overnight. Increasing concentrations of the test compound (compound 155) and vehicle control were added and incubated for 4 hours at 37° C., 5% CO2. Lactate reagent was added (Trinity Biotech), the plates were incubated in the dark for 7 min at room temperature before capturing the absorbance at 540 nm using a plate reader.

In test [2] the test system is A549 adenocarcinoma NucLight Red cells. The test can be described thus: Apoptosis induction assay, Caspase 3/7 reagent, IncuCyte. Conditions: Homo sapiens, Caspase 3/7, AUC analysis of first 24 hours of compound exposure. The procedure: (§1) A549 adenocarcinoma NucLight Red cells were grown in Ham's F12K medium supplemented with 10% foetal bovine serum, 2 mM Glutamax, 1% pen/strep and 0.5 μg ml-l puromycin. Cells were seeded at 1×10^4 cells per well into 384-well microtitre-plates with media containing 5 mM (FIGS. 3A and 3C) or 17 mM glucose (FIGS. 3B and 3D). The cells were left to adhere before the addition of increasing concentration of test compound (compound 155) and vehicle control. The cells stably expressed Essen CellPlayer NucLight Red Fluorescent Protein to allow measurement of cell proliferation (FIGS. 3 A and B). The culture medium contained Essen CellPlayer 96-well Kinetic Caspase 3/7-reagent and Biotium DEVD-NucView 488 to allow measurement of apoptosis induction (FIGS. 3 C and D). Cells were monitored continuously for 48 hours of compound exposure using Essen IncuCyte.
(§2) pIC50 values for the proliferation and apoptosis assays were derived from area under the curve (AUC) analysis of data from the first 24 hours of compound exposure.

In a further test the target is T1, human GLUT1 (Homo sapiens, UniProt P11166).
T1 construct: expressed in transfected cells
T1 sequence (P11166 1-492): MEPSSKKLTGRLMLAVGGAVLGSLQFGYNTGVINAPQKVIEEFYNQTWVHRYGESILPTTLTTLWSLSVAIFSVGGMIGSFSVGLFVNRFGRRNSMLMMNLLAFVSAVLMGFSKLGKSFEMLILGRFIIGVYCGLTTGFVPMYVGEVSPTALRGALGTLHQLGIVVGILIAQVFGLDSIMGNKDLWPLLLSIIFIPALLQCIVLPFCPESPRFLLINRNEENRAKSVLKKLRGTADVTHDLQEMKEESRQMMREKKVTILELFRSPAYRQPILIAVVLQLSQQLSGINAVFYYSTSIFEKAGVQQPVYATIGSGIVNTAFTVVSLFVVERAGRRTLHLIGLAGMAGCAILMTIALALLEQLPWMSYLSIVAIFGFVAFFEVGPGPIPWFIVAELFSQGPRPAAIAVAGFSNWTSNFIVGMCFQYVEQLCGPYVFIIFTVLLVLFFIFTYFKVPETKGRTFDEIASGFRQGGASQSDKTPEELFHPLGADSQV
The test can be described thus: [3H]-deoxy-D-glucose uptake assay, GLUT1. The following applies: [3H]-deoxy-D-glucose uptake in HEK293 cells stably expressing human GLUT1. The essentials:
(§3)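 HEK293 cells stably overexpressing human GLUT1 or GLUT2, seeded at 60,000 per well, treated with compounds in glucose-free uptake buffer for 30 min at 37 °C. [3H]-deoxy-D-glucose uptake quantified by scintillation counting after ice-cold PBS washes; IC50 determined.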

In test [3] the test system is A549 adenocarcinoma NucLight Red cells. Nature of the test: Cell growth (proliferation) assay, NucLight Red, IncuCyte. Conditions: Homo sapiens, AUC analysis of first 24 hours of compound exposure. The procedure: as §1, §2
The target of another test is T2, human GLUT2 (Homo sapiens, UniProt P11168).
T2 construct: expressed in transfected cells
T2 sequence (P11168 1-524): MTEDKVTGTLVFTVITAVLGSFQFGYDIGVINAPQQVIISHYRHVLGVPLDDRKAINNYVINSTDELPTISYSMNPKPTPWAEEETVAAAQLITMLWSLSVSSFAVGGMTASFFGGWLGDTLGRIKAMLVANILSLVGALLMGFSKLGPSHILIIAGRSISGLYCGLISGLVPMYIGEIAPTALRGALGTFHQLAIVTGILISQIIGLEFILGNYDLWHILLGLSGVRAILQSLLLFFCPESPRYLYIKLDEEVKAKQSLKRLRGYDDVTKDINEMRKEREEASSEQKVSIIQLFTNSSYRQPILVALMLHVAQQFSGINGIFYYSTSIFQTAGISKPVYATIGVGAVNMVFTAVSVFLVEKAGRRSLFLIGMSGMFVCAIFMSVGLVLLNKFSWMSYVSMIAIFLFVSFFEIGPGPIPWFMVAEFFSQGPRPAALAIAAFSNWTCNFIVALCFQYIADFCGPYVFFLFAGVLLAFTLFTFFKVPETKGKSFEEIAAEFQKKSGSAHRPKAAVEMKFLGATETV
Nature of the test: [3H]-deoxy-D-glucose uptake assay, GLUT2. Conditions: [3H]-deoxy-D-glucose uptake in HEK293 cells stably expressing human GLUT2. The essentials:
as §3

Another test deals with T3, human GLUT4 (Homo sapiens, UniProt P14672).
T3 construct: expressed in transfected cells
T3 sequence (P14672 1-509): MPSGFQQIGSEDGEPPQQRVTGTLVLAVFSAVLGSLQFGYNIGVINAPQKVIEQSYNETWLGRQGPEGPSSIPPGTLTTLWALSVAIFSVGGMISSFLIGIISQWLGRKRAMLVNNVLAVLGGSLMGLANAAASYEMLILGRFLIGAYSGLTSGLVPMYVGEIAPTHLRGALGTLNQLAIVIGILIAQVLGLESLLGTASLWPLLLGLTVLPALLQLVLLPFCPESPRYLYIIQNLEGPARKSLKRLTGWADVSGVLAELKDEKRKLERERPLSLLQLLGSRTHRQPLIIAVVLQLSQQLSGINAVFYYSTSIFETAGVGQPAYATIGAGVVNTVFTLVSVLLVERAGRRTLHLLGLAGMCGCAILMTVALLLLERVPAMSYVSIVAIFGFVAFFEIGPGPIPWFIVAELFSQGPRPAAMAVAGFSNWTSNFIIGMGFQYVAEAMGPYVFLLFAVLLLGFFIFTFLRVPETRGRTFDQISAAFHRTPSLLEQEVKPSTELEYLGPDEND
Nature of the test: [3H]-deoxy-D-glucose uptake assay, GLUT4. The following applies: [3H]-deoxy-D-glucose uptake in HEK293 cells stably expressing human GLUT4. The method in brief: (§4)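 HEK293 cells stably overexpressing human GLUT3 or GLUT4, preincubated with compound 30 min at 37 °C in glucose-free HEPES buffer pH 7.4. [3H]-deoxy-D-glucose (125 μM final) uptake then run 30 min at 37 °C, quantified by scintillation counting; IC50 determined.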

A further test deals with T4, human GLUT3 (Homo sapiens, UniProt P11169).
T4 construct: expressed in transfected cells
T4 sequence (P11169 1-496): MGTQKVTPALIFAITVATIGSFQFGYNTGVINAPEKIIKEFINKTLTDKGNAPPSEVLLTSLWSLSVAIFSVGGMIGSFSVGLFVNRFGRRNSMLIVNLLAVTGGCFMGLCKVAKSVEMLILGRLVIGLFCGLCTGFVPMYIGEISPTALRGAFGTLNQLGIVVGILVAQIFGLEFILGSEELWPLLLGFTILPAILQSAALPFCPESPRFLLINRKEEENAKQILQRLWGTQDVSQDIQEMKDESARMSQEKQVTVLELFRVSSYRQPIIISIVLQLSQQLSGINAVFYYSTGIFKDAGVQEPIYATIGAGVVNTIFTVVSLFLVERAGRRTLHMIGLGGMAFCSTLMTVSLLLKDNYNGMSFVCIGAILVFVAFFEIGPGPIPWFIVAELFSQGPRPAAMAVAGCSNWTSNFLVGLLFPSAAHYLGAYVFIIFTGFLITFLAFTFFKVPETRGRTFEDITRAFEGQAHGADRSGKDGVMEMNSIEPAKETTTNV
The test can be described thus: [3H]-deoxy-D-glucose uptake assay, GLUT3. The following applies: [3H]-deoxy-D-glucose uptake in HEK293 cells stably expressing human GLUT3. The method in brief:
as §4

Where two headings read alike, the source gives them in different places. Where only a bound is given, the exact number is not on record here.

The results in this text go back to patent publication US20160120863A1, “SLC2A TRANSPORTER INHIBITORS” (IOMET PHARMA LTD., priority 2013, published 2016).

With `N#Cc1ccccc1-c1ccc2nc(-c3ccc(Cl)cc3)c(CN3CCN(C(=O)c4cccc(F)c4)CC3)n2c1` [Compound 155], the IC50 is 0.0257 µM in test [1]; 0.0776 µM in the test on A549 cells (5 mM glucose, read-out: Lactate Secretion (5 mM glucose) pIC50 (converted)); 0.398 µM in the test with A549 cells (17 mM glucose, read-out: Lactate Secretion (17 mM glucose) pIC50 (converted)); 0.316 µM in test [2] (5 mM glucose, read-out: Apoptosis (5 mM glucose) pIC50 (converted)); 0.813 µM in test [2] (17 mM glucose, read-out: Apoptosis (17 mM glucose) pIC50 (converted)); less than 0.126 µM in test [3] (5 mM glucose, read-out: Proliferation (5 mM glucose) pIC50 (converted)). For the same molecule, in test [3] (17 mM glucose, read-out: Proliferation (17 mM glucose) pIC50 (converted)), the IC50 was 0.38 µM. Also, the “GLUT1 pIC50” value on human GLUT1 is given as “+++ (pIC50 ≧ 6.00)”.
`CN(c1ccc2nc(-c3ccc(Cl)cc3Cl)c(CN3CCN(C(=O)C4CCOCC4)CC3)n2c1)S(C)(=O)=O` [Compound 372]: the “GLUT2 pIC50” value at human GLUT2 is reported as “+++ (pIC50 ≧ 6.00)”. In addition, at human GLUT4, the “GLUT4 pIC50” value is “+++ (pIC50 ≧ 6.00)”. Also, at human GLUT3, the “GLUT3 pIC50” value is listed as “+++ (pIC50 ≧ 6.00)”. Besides, the “GLUT1 pIC50” value on human GLUT1 is “+++ (pIC50 ≧ 6.00)”.
`CS(=O)(=O)Nc1ccc2nc(-c3ccc(Cl)cc3Cl)c(CN3CCN4C(=O)CCC4C3)n2c1` (stereo not shown) [Compound 373]: the “GLUT2 pIC50” value at human GLUT2 was “+++ (pIC50 ≧ 6.00)”. In addition, at human GLUT4, the “GLUT4 pIC50” value is recorded as “+++ (pIC50 ≧ 6.00)”. Besides, the “GLUT3 pIC50” value at human GLUT3 was “+++ (pIC50 ≧ 6.00)”. In addition, at human GLUT1, the “GLUT1 pIC50” value was “+++ (pIC50 ≧ 6.00)”.
As for `CN(c1ccc2nc(-c3ccc(Cl)cc3Cl)c(CN3CCN4C(=O)CCC4C3)n2c1)S(C)(=O)=O` (stereo not shown) [Compound 374], the “GLUT2 pIC50” value at human GLUT2 was “+++ (pIC50 ≧ 6.00)”. In addition, the “GLUT4 pIC50” value on human GLUT4 is listed as “+++ (pIC50 ≧ 6.00)”. In addition, the “GLUT3 pIC50” value at human GLUT3 is given as “+++ (pIC50 ≧ 6.00)”. The “GLUT1 pIC50” value at human GLUT1 was “+++ (pIC50 ≧ 6.00)”.
Take `CSc1ccc2nc(-c3ccc(Cl)cc3)c(CN3CCN(C(C)=O)CC3)n2c1` [Compound 377]: the “GLUT2 pIC50” value at human GLUT2 is reported as “++ (pIC50 5.00-5.99)”. At human GLUT4, the “GLUT4 pIC50” value was “+++ (pIC50 ≧ 6.00)”. On human GLUT3, the “GLUT3 pIC50” value is given as “+++ (pIC50 ≧ 6.00)”. At human GLUT1, the “GLUT1 pIC50” value was “++ (pIC50 5.00-5.99)”.
Turning to `CC(=O)N1CCN(Cc2c(-c3ccc(Cl)cc3)nc3ccc(S(C)(=O)=O)cn23)CC1` [Compound 378], the “GLUT2 pIC50” value on human GLUT2 is recorded as “+− (pIC50 < 4.00)”. In addition, the “GLUT4 pIC50” value on human GLUT4 is recorded as “+++ (pIC50 ≧ 6.00)”. For the same molecule, on human GLUT3, the “GLUT3 pIC50” value is “+++ (pIC50 ≧ 6.00)”. For the same molecule, the “GLUT1 pIC50” value on human GLUT1 was “+++ (pIC50 ≧ 6.00)”.
For the molecule `CN(c1ccc2nc(-c3ccc(Cl)cc3Cl)c(CN3CCN(C(=O)C(C)(C)O)CC3)n2c1)S(C)(=O)=O` [Compound 381], the “GLUT2 pIC50” value at human GLUT2 is “++ (pIC50 5.00-5.99)”. In addition, the “GLUT4 pIC50” value on human GLUT4 is given as “+++ (pIC50 ≧ 6.00)”. For the same molecule, the “GLUT3 pIC50” value on human GLUT3 is reported as “+++ (pIC50 ≧ 6.00)”. In addition, on human GLUT1, the “GLUT1 pIC50” value is reported as “+++ (pIC50 ≧ 6.00)”.
Consider `CC(=O)N1CCN(Cc2c(-c3ccc(Cl)cc3)nc3ccc(S(=O)(=O)C(C)C)cn23)CC1` [Compound 382], for which the “GLUT2 pIC50” value at human GLUT2 is recorded as “++ (pIC50 5.00-5.99)”. Further, the “GLUT4 pIC50” value at human GLUT4 is recorded as “+++ (pIC50 ≧ 6.00)”. Moreover, the “GLUT3 pIC50” value at human GLUT3 is given as “+++ (pIC50 ≧ 6.00)”. Moreover, the “GLUT1 pIC50” value at human GLUT1 is reported as “+++ (pIC50 ≧ 6.00)”.
As for `CCS(=O)(=O)c1ccc2nc(-c3ccc(Cl)cc3)c(CN3CCN(C(C)=O)CC3)n2c1` [Compound 385], the “GLUT2 pIC50” value on human GLUT2 is “++ (pIC50 5.00-5.99)”. Moreover, the “GLUT4 pIC50” value at human GLUT4 is given as “+++ (pIC50 ≧ 6.00)”. The “GLUT3 pIC50” value on human GLUT3 is recorded as “+++ (pIC50 ≧ 6.00)”. Besides, the “GLUT1 pIC50” value on human GLUT1 was “+++ (pIC50 ≧ 6.00)”.
